Results on 3 compounds are retold here after patent publication US8211883B2, “Topical delivery of phthalocyanines” (priority 2004, dated 2012).

Marks after values point to notes of the source that are not given here. A value given as a limit tells only on which side of the number the result lay.

Data set [1] deals with Chinese hamster V79-379 lung fibroblasts. Put plainly: Uptake of phthalocyanines into V79 cells. Conditions: for Uptake Into V79 Cells, 1 μM / Uptake Into V79 Cells, 4 μM: 18 hours; for n Moles/10^6 Cells/μM (composite uptake value): V79 cells, average of all data, asterisk: listed value is for 1 μM, average would be higher. The method, boiled down: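 V79-379 cells were incubated with phthalocyanine for 18 h, typically at 1, 2 and/or 4 μM. Cells collected on filters were extracted into ethanol and absorbance read at the peak, usually 668 nm. Values are nmol per 10^6 cells, using ε 2.93×10^5.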

Data set [2] deals with RIF-1 (radiation-induced fibrosarcoma) tumors. The data set can be described thus: PDT of RIF-1 implanted tumors. The class given is in vivo, C3H/HeN mice. Details: key to Tumor Responses at 24 hours: complete: no evidence of any tumor mass in any animal; only the scar from the photodynamic therapy was evident.; near complete: evidence of any tumor mass in four or five animals; only some tumor mass in one or two animals.; substantial: a significant tumor shrinkage occurred in all animals. In some animals the tumor response was complete, yet in others the response was not complete.; moderate: some tumor shrinkage was evident in some animals. In animals with some tumor shrinkage, scar formation was evident.; slight: some tumor decrease occurred in one or two mice. Conditions: for Tumor Responses at 24 hours / Doubling Time of Initial Tumor Volume after PDT: 1 mg/kg in corn oil, 675 nm; for Tumor Responses at 24 hours: 135 J/cm^2, light 24 h after dosing; for Doubling Time of Initial Tumor Volume after PDT: 135 J/cm^2, controls 4 days.

The subject of data set [3] is Chinese hamster V79-379 lung fibroblasts. The data set can be described thus: Growth delay of V79 cultures after phthalocyanine and red light. The class given is cell-based. Conditions: V79 cells, 0.5 μM, 18 hours, 12 kJ/m^2 red light; three day observation. The procedure:
At the time of light exposure, there were approximately 1.5×10^5 cells per 25 cm^2 flask. Following irradiation, the HBSS was replaced by 10 mL of fresh complete growth medium, and the cultures were returned to the 37° C. incubator. At various times before and after irradiation, duplicate cultures were trypsinized and counted. Controls included untreated cells and cells treated with light alone or drug alone. In addition, in each experiment, the drug to be tested was compared to a standard treatment, i.e. 1 μM AlPcCl for 18 hours followed by 12 kJ/m^2 light.
The inhibition of V79 culture growth was measured during a three day period following red light irradiation (12 kJ/m^2) of phthalocyanine-pretreated cells. With each of the active compounds, as well as with AlPcCl, there was an initial decrease in cell density, as dead cells became detached from the monolayer. Thereafter, the cell number per flask increased, as living cells grew and divided. The time for the cell density to recover to the level at the time of light exposure was considered the growth delay. […] The ratio of the growth delay for the test photosensitizer and the growth delay for AlPcCl measured in the same experiment is recorded in Table 1. There was less inhibition of culture growth when cells were exposed to compounds III, V, or VI as expected from the poor cellular uptake of these drugs.

On to `CCN(CCC[Si](C)(C)O[Si]1(O[Si](C)(C)CCCN(CC)CCN(C)C)n2c3c4ccccc4c2N=C2N=C(N=c4c5ccccc5c(n41)=NC1=NC(=N3)c3ccccc31)c1ccccc12)CCN(C)C` [Compound XVIII, SiPc[OSi(CH3)2(CH2)3N(CH2CH3)(CH2)2N(CH3)2]2], for which, in data set [1], the “Uptake Into V79 Cells, 1 μM” value was 0.3 ± 0.1 n Moles/10^6 cells; the “Uptake Into V79 Cells, 4 μM” value stood at 3.6 ± 0.6 n Moles/10^6 cells; the “n Moles/10^6 Cells/μM (composite uptake value)” value is 0.3* n Moles/10^6 Cells/μM. Also, in data set [2], the “Tumor Responses at 24 hours” value is recorded as “near complete” and the “Doubling Time of Initial Tumor Volume after PDT” value (shortened to “Doubling Time”) came to 12 days.
Consider `CN(C)CCC[Si](C)(C)O[Si]1(O)n2c3c4ccccc4c2N=C2N=C(N=c4c5ccccc5c(n41)=NC1=NC(=N3)c3ccccc31)c1ccccc12` (centres unmarked) [Compound IV, HOSiPcOSi(CH3)2(CH2)3N(CH3)2], for which, in data set [2], the “Tumor Responses at 24 hours” value is reported as “near complete” and the “Doubling Time” value is listed as 16 days. Besides, the “Histological examination of treated tumors” value in data set [2] (RIF-1 tumors after PDT) is “presence of apoptotic bodies in the tumor”. The “Growth Delay (12 kj/m^2), Efficiency Relative to 1 μM (AlPcCl)” value in data set [3] is reported as greater than 3.
For the compound `CN(C)CCC[Si](C)(C)O[Si]1(O[Si](C)(C)CCCN(C)C)n2c3c4ccccc4c2N=C2N=C(N=c4c5ccccc5c(n41)=NC1=NC(=N3)c3ccccc31)c1ccccc12` [Compound XII, SiPc[OSi(CH3)2(CH2)3N(CH3)2]2], in data set [1], the “Uptake Into V79 Cells, 1 μM” value is 2.1 ± 1.2 n Moles/10^6 cells; the “Uptake Into V79 Cells, 4 μM” value came out at 4.6 ± 1.5 n Moles/10^6 cells; the “n Moles/10^6 Cells/μM (composite uptake value)” value is 1.6 n Moles/10^6 Cells/μM. In addition, in data set [2], the “Tumor Responses at 24 hours” value was “complete” and the “Doubling Time” value is given as 20 days.
